Source: patent US5235843A, “Method and apparatus for analyzing volatile chemical components in a liquid” (The Dow Chemical Company, priority 1991, dated 1993)

Assay: Enrichment (partitioning from water to air in segmented flow), enrichment factor
Format: physicochemical
Settings: calculated enrichment factor
Source text: That is, each enrichment factor is a direct measure of the detection capabilities of the method and apparatus with respect to a specific volatile compound compound.
Both the detection limit in air and quantitation limit in water will vary depending on the sensitivity of the analytical equipment used. Thus, at any given testing site the sensitivity of the particular gas chromatograph used will determine detection and quantitation limits.
Without benefit of known enrichment factor for each compound compound present, extrapolation of the quantitation limit (LOQ) for each compound was accomplished by multiplying the signal-to-noise ratio of the test instrument by ten. These quantitation limits are a reflection of both the detector sensitivity (LOD) and what can be referred to as the enrichment factor or magnification of the concentration into the air phase. Thus, an enrichment factor was calculated for each compound as follows: [formula]
The enrichment factor depends on the volatility, water solubility, and diffusion coefficient of the particular compound.

Row | SMILES | EF (air/water)
1 | ClC(Cl)C(Cl)Cl [1,1,2,2-TETRACHLOROETHANE] | 2.0
2 | ClCC(Cl)Cl [1,1,2-TRICHLOROETHANE] | 3.9
3 | CC(Cl)(Cl)Cl [1,1,-TRICHLOROETHANE] | 6.8
4 | CC(Cl)Cl [1,1-DICHLOROETHANE] | 6.7
5 | Clc1ccccc1Cl [1,2-DICHLOROBENZENE] | 1.7
6 | ClCCCl [1,2-DICHLOROETHANE] | 6.8
7 | CC(Cl)CCl (stereo not drawn) [1,2-DICHLOROPROPANE] | 7.7
8 | ClC(Cl)Br [BROMODICHLOROMETHANE] | 7.7
9 | BrC(Br)Br [BROMOFORM] | 2.0
10 | ClC(Cl)(Cl)Cl [CARBON TETRACHLORIDE] | 7.7
11 | Clc1ccccc1 [CHLOROBENZENE] | 4.0
12 | ClC(Br)Br [CHLORODIBROMOMETHANE] | 3.7
13 | ClC(Cl)Cl [CHLOROFORM] | 6.6
14 | CBr [METHYL BROMIDE] | 76
15 | ClCCl [METHYLENE CHLORIDE] | 8.2
16 | ClC(Cl)=C(Cl)Cl [PERCHLOROETHYLENE] | 4.8
17 | ClC=C(Cl)Cl [TRICHLOROETHYLENE] | 9.9
18 | C=C(Cl)Cl [[…]] | 12
19 | Cl/C=C\CCl [c-1,3 DICHLOROPROPENE] | 3.6
20 | Cl/C=C/Cl [t-1,2-DICHLOROETHYLENE] | 16
21 | Cl/C=C/CCl [t-1,3-DICHLOROPROPENE] | 7.2
